One assay has as its target T1, human V2 receptor (Homo sapiens, UniProt P30518).
T1 construct: expressed in transfected cells; host or cells: CHO K1 (ATCC), constitutively expressing a modified aequorin and stably co-transfected with promiscuous G-alpha-16
As to the kind of experiment: Cellular in vitro test for determination of the vasopressin receptor activity (aequorin luminescence, CHO cells), human V2. Conditions: cell line transfected with the human V2 receptor, antagonism of [Arg8]-vasopressin, read-out: IC50 hV2. It is filed as cell-based. The source says:
(§1) B-1. Cellular In Vitro Test for Determination of the Vasopressin Receptor Activity
(§2) The identification of agonists and antagonists of the V1a- and V2-vasopressin receptors in man and the rat and the quantification of the activity of the compounds according to the invention are effected by means of recombinant cell lines. These cells are originally derived from the ovarian epithelial cells of the hamster (Chinese Hamster Ovary, CHO K1, ATCC: American Type Culture Collection, Manassas, Va. 20108, USA). The test cell lines constitutively express a modified form of the calcium-sensitive photoprotein aequorin, which after reconstitution with the cofactor coelenterazine emits light on an increase in the free calcium concentrations [Rizzuto R, Simpson A W, Brini M, Pozzan T, Nature 358, 325-327 (1992)]. In addition, the cells are stably transfected with human or rat V1a- or V2 receptors. In the case of the Gs-coupled V2 receptors, the cells are stably transfected with a further gene which codes for the promiscuous Gα16-Protein [Amatruda T T, Steele D A, Slepak V Z, Simon M I, Proceedings of the National Academy of Science USA 88, 5587-5591 (1991)]. The resulting vasopressin receptor test cells react to stimulation of the recombinantly expressed vasopressin receptors with an intracellular release of calcium ions, which can be quantified by the resulting aequorin luminescence with a suitable luminometer [Milligan G, Marshall F, Rees S, Trends in Pharmacological Sciences 17, 235-237 (1996)].
(§3) On the day before the text, the cells are plated out in culture medium (DMEM, 10% FCS, 2 mM glutamine, 10 mM HEPES) in 384-well microtitre plates and kept in a cell incubator (96% atmospheric humidity, 5% v/v CO2, 37° C.). On the test day, the culture medium is replaced by a Tyrode solution (140 mM NaCl, 5 mM KCl, 1 mM MgCl2, 2 mM CaCl2, 20 mM glucose, 20 mM HEPES) which in addition contains the cofactor coelenterazine (50 μM), and the microtitre plate is then incubated for a further 3-4 hours. The test substances in various concentrations are placed beforehand in the wells of the microtitre plate for 10 to 20 minutes, before the agonist [Arg^8]-vasopressin is added and the resulting light signal immediately measured in the luminometer. The IC50 values are calculated by means of the computer program GraphPad PRISM (Version 3.02).

A further assay concerns the target T2, human V1a receptor (Homo sapiens, UniProt P37288).
T2 construct: expressed in transfected cells; host or cells: CHO K1 (ATCC), constitutively expressing a modified aequorin
As to the kind of experiment: Cellular in vitro test for determination of the vasopressin receptor activity (aequorin luminescence, CHO cells), human V1a. It counts as cell-based. Conditions: cell line transfected with the human V1a receptor, antagonism of [Arg8]-vasopressin, read-out: IC50 hV1a.
Description: as §1, §2, §3

The structures appear in SMILES notation.

T1 sequence (P30518 whole entry): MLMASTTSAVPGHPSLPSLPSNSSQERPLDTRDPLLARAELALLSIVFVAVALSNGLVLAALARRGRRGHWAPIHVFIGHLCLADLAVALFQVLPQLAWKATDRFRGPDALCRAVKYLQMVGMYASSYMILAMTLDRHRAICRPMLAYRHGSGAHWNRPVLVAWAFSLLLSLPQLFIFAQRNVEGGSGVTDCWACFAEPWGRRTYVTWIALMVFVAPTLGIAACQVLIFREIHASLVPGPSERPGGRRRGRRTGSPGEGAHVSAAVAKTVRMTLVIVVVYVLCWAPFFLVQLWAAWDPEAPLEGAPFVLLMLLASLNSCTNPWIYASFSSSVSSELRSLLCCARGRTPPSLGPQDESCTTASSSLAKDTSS
T2 sequence (P37288 whole entry): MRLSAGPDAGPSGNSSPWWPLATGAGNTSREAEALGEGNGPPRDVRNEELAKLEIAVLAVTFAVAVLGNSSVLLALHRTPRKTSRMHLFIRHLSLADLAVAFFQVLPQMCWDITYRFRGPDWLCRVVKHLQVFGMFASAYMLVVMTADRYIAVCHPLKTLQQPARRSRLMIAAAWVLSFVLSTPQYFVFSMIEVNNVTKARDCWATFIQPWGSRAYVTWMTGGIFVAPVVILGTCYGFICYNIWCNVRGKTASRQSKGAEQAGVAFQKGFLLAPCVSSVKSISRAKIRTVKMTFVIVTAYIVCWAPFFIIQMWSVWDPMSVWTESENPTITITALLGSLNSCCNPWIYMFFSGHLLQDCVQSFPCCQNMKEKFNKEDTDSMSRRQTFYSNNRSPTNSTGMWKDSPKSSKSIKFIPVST

As to `NC(=O)C(NC(=O)Cn1nc(-c2ccc(Cl)cc2)n(CC(O)C(F)(F)F)c1=O)c1cccc(C(F)(F)F)c1` (stereo not drawn) [Example 509, 2-[3-(4-chlorophenyl)-5-oxo-4-(3,3,3-trifluoro-2-hydroxypropyl)-4,5-dihydro-1H-1,2,4-triazol-1-yl]-N-{2-amino-2-oxo-1-[3-(trifluoromethyl)phenyl]ethyl}-acetamide], the IC50 at human V2 receptor was determined as 4 nM; on human V1a receptor, 8 nM.

Consider `O=C(Cn1cc(-c2ccc(Cl)s2)n(Cc2ccccc2F)c1=O)NCc1cccc(C(F)(F)F)c1` [Example 503], for which the IC50 at human V2 receptor is 221 nM; at human V1a receptor it was 25 nM.

As to `O=C(CCn1nc(-c2ccc(Cl)cc2)n(C2CC2)c1=O)NCc1cccc(C(F)(F)F)c1` [Example 25], the IC50 on human V2 receptor was 180 nM; on human V1a receptor, 6300 nM.

On to `O=C(Cn1nc(-c2ccccc2O)n(Cc2cccc(F)c2)c1=O)NCCc1ccccc1C(F)(F)F` [Example 260], for which the IC50 came out at 154 nM on human V2 receptor and 30 nM at human V1a receptor.

In the case of `CC(C)(NC(=O)Cn1nc(-c2ccc(Cl)cc2)n(CC(F)(F)F)c1=O)c1cccc(C(F)(F)F)c1` [Example 386], the IC50 was 23 nM at human V2 receptor and 611 nM at human V1a receptor.

As to `O=C(Cn1nc(-c2ccc(Cl)cc2)n(C2CC2)c1=O)NC(C(=O)NC1CC1)c1ccccc1C(F)(F)F` (stereo not drawn) [Example 340], the IC50 on human V2 receptor came out at 1150 nM; on human V1a receptor it was 39 nM.

The record behind these values is patent US8084481B2, “Substituted arylimidazolone and triazolone as inhibitors of vasopressin receptors” (Bayer Pharma Aktiengesellschaft, priority 2006, dated 2011).
